According to ChEMBL document CHEMBL1201862, “PubChem BioAssay data set” (2004):
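Grown in 96-well plates, cells were treated for 48 hours with each compound at five concentrations. Insufficient inhibition: endpoint recorded as highest concentration tested. The concentration for 50% growth inhibition is given as GI50.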 The source made the active and inactive calls. Cut-off read from the data, not from the text of the source: active = GI50 up to about 1.1 µM and inactive = higher.

Columns and labels:
Assay in all cases: inhibition of tumour cell growth, NCI panel, 48 h
SF-295 = test system: SF-295
OVCAR-8 = test system: OVCAR-8
CCRF-CEM = test system: CCRF-CEM
DU-145 = test system: DU-145
SK-OV-3 = test system: SK-OV-3
UACC-62 = test system: UACC-62
K562 = test system: K562
786-0 = test system: 786-0
UACC-257 = test system: UACC-257
HCT-15 = test system: HCT-15
SK-MEL-5 = test system: SK-MEL-5
A549 = test system: A549
TK-10 = test system: TK-10
MDA-MB-435 = test system: MDA-MB-435
LOX IMVI = test system: LOX IMVI
SF-268 = test system: SF-268
RXF 393 = test system: RXF 393
NCI-H460 = test system: NCI-H460
M14 = test system: M14
HL-60 = test system: HL-60

Row | SMILES | GI50 (SF-295) | GI50 (OVCAR-8) | GI50 (CCRF-CEM) | GI50 (DU-145) | GI50 (SK-OV-3) | GI50 (UACC-62) | GI50 (K562) | GI50 (786-0) | GI50 (UACC-257) | GI50 (HCT-15) [µM] | GI50 (SK-MEL-5) | GI50 (A549) | GI50 (TK-10) | GI50 (MDA-MB-435) | GI50 (LOX IMVI) | GI50 (SF-268) | GI50 (RXF 393) | GI50 (NCI-H460) | GI50 (M14) | GI50 (HL-60)
1 | COc1c(C)c(C/C=C(\C)CCCCO)c(OC)c(OC)c1OC | 48.6 µM (inactive) | > 100 µM (inactive) | 45.6 µM (inactive) | > 100 µM (inactive) | > 100 µM (inactive) | > 100 µM (inactive) | 24.4 µM (inactive) | > 100 µM (inactive) | > 100 µM (inactive) | > 100 | 88.7 µM (inactive) | 23.7 µM (inactive) | > 100 µM (inactive) | > 100 µM (inactive) | 25.5 µM (inactive) | > 100 µM (inactive) | > 100 µM (inactive) | 18 µM (inactive) | > 100 µM (inactive) | 
2 | Cc1ccc(/C=C2\CN(C)CC3C(c4ccc(C)cc4)=C(C#N)C(=O)NC23)cc1 (stereo not given) | > 50 µM (inactive) | > 50 µM (inactive) | > 50 µM (inactive) | > 50 µM (inactive) | > 50 µM (inactive) | > 50 µM (inactive) | > 50 µM (inactive) | > 50 µM (inactive) | > 50 µM (inactive) | > 50 | > 50 µM (inactive) | > 50 µM (inactive) | > 50 µM (inactive) | > 50 µM (inactive) | > 50 µM (inactive) | > 50 µM (inactive) | > 50 µM (inactive) | > 50 µM (inactive) | > 50 µM (inactive) | 
3 | Cc1cccc(Br)[n+]1[O-] | > 100 µM (inactive) | > 100 µM (inactive) | > 100 µM (inactive) | > 100 µM (inactive) | > 100 µM (inactive) | > 100 µM (inactive) | > 100 µM (inactive) | > 100 µM (inactive) | > 100 µM (inactive) | > 100 | > 100 µM (inactive) | > 100 µM (inactive) | > 100 µM (inactive) | > 100 µM (inactive) | > 100 µM (inactive) | > 100 µM (inactive) | > 100 µM (inactive) | > 100 µM (inactive) | > 100 µM (inactive) | 
4 | CN(C)CCCNc1ccc2nnn3c4ccc(OC(=O)c5ccccc5)cc4c(=O)c1c23 | 10.9 µM (inactive) | 4.55 µM (inactive) | 1.08 µM (active) | 8.26 µM (inactive) | 9.51 µM (inactive) | 14.5 µM (inactive) | 1.81 µM (inactive) | 3.08 µM (inactive) | 16 µM (inactive) | 5.36 |  | 2.43 µM (inactive) | 7.8 µM (inactive) | 6.4 µM (inactive) | 2.17 µM (inactive) | 10.5 µM (inactive) | 4.44 µM (inactive) | 0.76 µM (active) | 13.4 µM (inactive) | 
5 | COc1ccc2c(c1)N=C1CSC(c3cc([N+](=O)[O-])ccc3Cl)N1C2 (stereo not given) | 30.5 µM (inactive) | 29 µM (inactive) |  |  | 25.2 µM (inactive) | 18.8 µM (inactive) | 26 µM (inactive) | 26.2 µM (inactive) | 15.8 µM (inactive) | 28.6 | 40.6 µM (inactive) | 30.9 µM (inactive) | 21.4 µM (inactive) | 15.6 µM (inactive) | 33 µM (inactive) | 34.5 µM (inactive) | 19.8 µM (inactive) | 19.4 µM (inactive) | 27.5 µM (inactive) | 22.5 µM (inactive)
6 | Cc1c(Cl)ccc2c(=O)c3cccc(CC(=O)O)c3oc12 | > 100 µM (inactive) | > 100 µM (inactive) | > 100 µM (inactive) | > 100 µM (inactive) |  |  | > 100 µM (inactive) | > 100 µM (inactive) | > 100 µM (inactive) | > 100 | > 100 µM (inactive) | > 100 µM (inactive) | > 100 µM (inactive) | > 100 µM (inactive) | > 100 µM (inactive) | > 100 µM (inactive) |  | > 100 µM (inactive) | > 100 µM (inactive) | > 100 µM (inactive)
7 | O=C(O)c1nc2ccc(C(F)(F)F)cc2nc1NCc1ccc(F)cc1 | 23.5 µM (inactive) | 21.5 µM (inactive) | 37.3 µM (inactive) | > 100 µM (inactive) | 31.7 µM (inactive) | 15.9 µM (inactive) | 19.6 µM (inactive) | 14.9 µM (inactive) | 22.4 µM (inactive) | 21.2 | 16.9 µM (inactive) | 19.1 µM (inactive) |  | > 100 µM (inactive) | 15.6 µM (inactive) |  | > 100 µM (inactive) | 19.4 µM (inactive) | 18.5 µM (inactive) | 
8 | C=CCc1ccc(Oc2cc(CC=C)c3c(c2O)O[C@@H](CO)[C@H]3c2ccc(O)c(-c3cc(CC=C)ccc3O)c2)cc1 | 67.1 µM (inactive) | 41.7 µM (inactive) | 20.5 µM (inactive) |  | > 100 µM (inactive) | 30.1 µM (inactive) | 37.6 µM (inactive) | 54 µM (inactive) | > 100 µM (inactive) | 30.2 | 87.3 µM (inactive) | > 100 µM (inactive) | > 100 µM (inactive) |  | 16.5 µM (inactive) | 58.7 µM (inactive) | 65.2 µM (inactive) | 24 µM (inactive) | 47.6 µM (inactive) | 23.8 µM (inactive)
9 | O=S1(=O)CCN(Cc2ccccn2)CC1 | > 100 µM (inactive) | > 100 µM (inactive) |  | > 100 µM (inactive) | > 100 µM (inactive) | > 100 µM (inactive) | > 100 µM (inactive) | > 100 µM (inactive) | > 100 µM (inactive) | > 100 | > 100 µM (inactive) | > 100 µM (inactive) | > 100 µM (inactive) | > 100 µM (inactive) | > 100 µM (inactive) | > 100 µM (inactive) | > 100 µM (inactive) | > 100 µM (inactive) | > 100 µM (inactive) | 
10 | CC1=NC(=Cc2ccc([N+](=O)[O-])cc2)C(=O)N1n1c(-c2ccccc2)nc2ccccc2c1=O | 52 µM (inactive) | 36.6 µM (inactive) | 32.8 µM (inactive) | 51.8 µM (inactive) | 68.9 µM (inactive) | 43.3 µM (inactive) | 40.6 µM (inactive) | 83 µM (inactive) | 42.9 µM (inactive) | 43.1 | 31.9 µM (inactive) | 47.1 µM (inactive) | 80.7 µM (inactive) | 47.6 µM (inactive) | 34.7 µM (inactive) | 37.8 µM (inactive) |  |  | 46.7 µM (inactive) | 32.3 µM (inactive)
11 | Cc1cc(C(F)(F)F)cc(-n2nc(NS(=O)(=O)c3cc(C)c(Cl)cc3S)nc2N)n1 | 8.79 µM (inactive) | 45.4 µM (inactive) | 23.7 µM (inactive) |  | 81.7 µM (inactive) | 29.5 µM (inactive) | 39.7 µM (inactive) | 44.6 µM (inactive) | > 100 µM (inactive) | 39.5 | 37.1 µM (inactive) | 36.6 µM (inactive) | > 100 µM (inactive) | 41.4 µM (inactive) | 18.7 µM (inactive) | 92.9 µM (inactive) | > 100 µM (inactive) | 24.4 µM (inactive) | 54.1 µM (inactive) | 32.8 µM (inactive)
12 | O=C(/C=C/c1ccc2c(c1)OCO2)NCc1ccco1 | > 100 µM (inactive) | > 100 µM (inactive) | > 100 µM (inactive) | > 100 µM (inactive) | > 100 µM (inactive) | 74.6 µM (inactive) | 82.6 µM (inactive) | > 100 µM (inactive) | > 100 µM (inactive) | > 100 | > 100 µM (inactive) | > 100 µM (inactive) | > 100 µM (inactive) | > 100 µM (inactive) | > 100 µM (inactive) |  |  | > 100 µM (inactive) | > 100 µM (inactive) | 
13 | COc1c(C)n(CCO)ccc1=O | > 100 µM (inactive) | > 100 µM (inactive) | > 100 µM (inactive) |  | > 100 µM (inactive) | > 100 µM (inactive) | > 100 µM (inactive) | > 100 µM (inactive) | > 100 µM (inactive) | > 100 | > 100 µM (inactive) | > 100 µM (inactive) | > 100 µM (inactive) |  | > 100 µM (inactive) | > 100 µM (inactive) | > 100 µM (inactive) | > 100 µM (inactive) | > 100 µM (inactive) | > 100 µM (inactive)
14 | CCCCCCCC/C=C/CCCCCCCC1CC(O)C(=O)O1 (stereo not given) | 30.7 µM (inactive) | 55.1 µM (inactive) | 39.9 µM (inactive) | 36.7 µM (inactive) | 79.8 µM (inactive) | 63.2 µM (inactive) | 42 µM (inactive) | 42.4 µM (inactive) | 46.7 µM (inactive) | 43.1 | 46.1 µM (inactive) | 51.6 µM (inactive) | > 100 µM (inactive) | 38.9 µM (inactive) | 78.3 µM (inactive) | 46.2 µM (inactive) |  | 25.1 µM (inactive) | 41.4 µM (inactive) | 35.3 µM (inactive)
15 | N#CCC(=O)Nc1cccc(C(F)(F)F)c1 | > 100 µM (inactive) | > 100 µM (inactive) | > 100 µM (inactive) |  | > 100 µM (inactive) | > 100 µM (inactive) | > 10 µM (inactive) | > 100 µM (inactive) | > 100 µM (inactive) | > 100 | > 100 µM (inactive) | > 100 µM (inactive) | > 100 µM (inactive) |  | > 100 µM (inactive) | > 100 µM (inactive) | > 100 µM (inactive) | > 100 µM (inactive) | > 100 µM (inactive) | > 100 µM (inactive)
16 | Cc1ccc(NC(=O)C(=O)Cc2cccc[n+]2[O-])cc1C | > 100 µM (inactive) | > 100 µM (inactive) | > 100 µM (inactive) |  | > 100 µM (inactive) | > 100 µM (inactive) | > 100 µM (inactive) | > 100 µM (inactive) | > 100 µM (inactive) | > 100 | > 100 µM (inactive) | > 100 µM (inactive) | > 100 µM (inactive) |  | > 100 µM (inactive) | > 100 µM (inactive) | > 100 µM (inactive) | > 100 µM (inactive) | > 100 µM (inactive) | > 100 µM (inactive)
